# According to US4606911A, “Pharmaceutical composition for the prevention of dental caries” (Rohto Pharmaceutical Co. Ltd., priority 1984, dated 1986):
# Assays:
# Format in all cases: cell-based
# [1] = system: Streptococcus salivarius ATCC 9222; experiment: Antibacterial activity (MIC, growth in BHI medium); set-up: key to Antibacterial activity (growth): -: grow; ±: slightly grow; +: not grow
# Protocol: (§1) To a test tube was charged 3.8 ml of Brain Heart Infusion (BHI) medium, and 100 μl of a sample solution containing oleanolic, ursolic or glycyrrhetic acid and 100 μl of pre-incubated culture of bacterium selected from those listed below were added thereto. The mixture was incubated at 37° C. and then allowed to stand over night. The extent of the growth of bacterium was observed after two or five days. The MIC value was determined for each sample and summarized in Table 2. |Streptococcus salivarius ATCC 9222
# [2] = system: Serratia marcescens IFO 12648; experiment: Antibacterial activity (MIC, growth in BHI medium); set-up: key to Antibacterial activity (growth): -: grow; ±: slightly grow; +: not grow
# Protocol: as §1, with “|Serratia marcescens IFO 12648” for “|Streptococcus salivarius ATCC 9222”
# bacterial cells = experiment: Adherence of bacterial cells to the surface of an extracted tooth; conditions: extracted tooth suspended in a culture medium containing sucrose
structure (smiles),measurement,setting,value
CC1(C)CC[C@]2(C(=O)O)CC[C@]3(C)C(=CC[C@@H]4[C@@]5(C)CC[C@H](O)C(C)(C)[C@@H]5CC[C@]43C)[C@@H]2C1 [Oleanolic acid],Antibacterial activity (growth),[1]; 10 μg/ml,-
same,Antibacterial activity (growth),[1]; 25 μg/ml,-
same,Antibacterial activity (growth),[1]; 50 μg/ml,-
same,Antibacterial activity (growth),[1]; 100 μg/ml,-
same,Antibacterial activity (growth),[1]; 200 μg/ml,±
same,Antibacterial activity (growth),[1]; 400 μg/ml,+
same,MIC,"[1]; ATCC9222, Streptococcus salivarius, BHI, 37° C., read-out: MIC (minimum inhibitory concentration)",400 µg/mL
same,Antibacterial activity (growth),[2]; 10 μg/ml,-
same,Antibacterial activity (growth),[2]; 25 μg/ml,-
same,Antibacterial activity (growth),[2]; 50 μg/ml,-
same,Antibacterial activity (growth),[2]; 100 μg/ml,-
same,Antibacterial activity (growth),[2]; 200 μg/ml,-
same,Antibacterial activity (growth),[2]; 400 μg/ml,-
same,MIC,"[2]; IFO12648, Serratia marcescens, BHI, 37° C., read-out: MIC (minimum inhibitory concentration)",> 400 µg/mL
same,adherence of bacterial cells to the surface of an extracted tooth,bacterial cells,completely inhibited
